Assay results reported in patent US20250066351A1, “PYRAZOLO[1,5-A]PYRIDIN-2,3-YL AMIDES AS KV7 CHANNEL ACTIVATORS” (Biohaven Therapeutics Ltd., priority 2022, published 2025).

molecular target: T1, hKv7.2/7.3 (Homo sapiens, UniProt O43525+O43526); assay: Kv7.2/7.3 Activation Assay, QPatch planar patch-clamp single concentration screen; assay type: cell-based; conditions: increase in current over baseline, Kv7.2/Kv7.3 co-expressing HEK cells, compound concentration 3 μM, steady-state current at end of 2 s pulse to −30 mV
T1 construct: host or cells: HEK cells, tetracycline-inducible expression
Method: The ability of compounds to potentiate K-currents in Kv7.2/7.3 containing HEK cells was assessed using planar patch-clamp on the QPatch automated screening platform.
Cell Line: The hKv7.2/7.3 cell line was obtained from Chantest (Cleveland, OH 44128) cat. #CT6147. These HEK cells will express the Kv7.2/7.3 ion channels when induced.
Cell Culture: Cells were maintained in a media containing DMEM/F12; 50/50 (GIBCO cat. #11330), 10% Fetal Bovine Serum (FBS) (GIBCO cat. #26140), 100 units/mL Penicillin-Streptomycin (GIBCO cat. #15140), 0.005 mg/mL Blasticidin (INVIVOGEN cat. #ant-bl-1), 0.5 mg/mL Geneticin (GIBCO cat. #10131), 0.1 mg/mL Zeocin (GIBCO cat. #R25001). Cells used in the electrophysiology assay were maintained in a media without Blasticidin, Geneticin and Zeocin for 2 days and channel expression was induced by adding tetracycline (BIOLINE cat. #BIO-87030) at a final concentration of […]. Cells were grown in T-175 flask to ˜75% confluency. Currents were recorded 24 hours after channel induction.
Compound Plates: Test compounds were prepared by performing serial dilutions on a Biomek NX^P (BECKMAN COULTER). Final dilutions were made in external recording solution with a final DMSO concentration of 0.1% DMSO. For single concentration screens each plate had 10 μM retigabine as a positive control and 0.1% DMSO as a negative control.
Electrophysiology: On the day of the experiment cells were washed with Hank's Balanced Salt Solution (HBBS) (GIBCO cat. #14175) and harvested with Tryple (GIBCO cat. #12604). Cells were then centrifuged at 2000 rpm for 5 minutes and resuspended in CHO—S-SFM (GIBCO cat. #12052) at […]. Cells were stirred for 30 minutes before experiments were started. External recording solution contained (in mM): NaCl (145), KCl (4), CaCl2 (2), MgCl2 (1), HEPES (10) and Glucose (10); pH was adjusted to 7.4 with NaOH and the osmolarity was adjusted to 300-305 mOsM with sucrose if necessary. Internal solution contained (in mM): KCl (125), KF (10), EGTA (5), Na2ATP (5), MgCl2 (3.2), HEPES (5); pH was adjusted to 7.2 with KOH and the osmolarity was adjusted to 298-302 mOsM with sucrose.
Potassium channel activity was measured on the QPatch HTX (Sophion Bioscience) using QPlates with 48-wells/plate. Each cell was taken as an independent experiment and only one compound was tested per well. Potassium channel activity was elicited by holding at −80 mV and stepping to −30 mV for 2 s followed by a 100 ms pulse to −120 mV.
Single concentration screen: Baseline conditions were obtained by recording 5 sweeps in the external solution only, this was repeated for three applications of the external solution. The effect of test compounds on elicited current was then assessed by recording 5 sweeps in the presence of a 3 μM compound solution. The steady-state current at the end of the 2 s pulse to −30 mV was measured to determine the fold increase from baseline.

QPatch Kv7.2/7.3 Activity, ++ (4.0-5.99 (++)):
C[C@@](O)(CC(=O)Nc1nn2ccc(C(F)(F)F)cc2c1-c1ccc(F)cc1)c1ccccn1 [Example 37, (R)-N-(3-(4-fluorophenyl)-5-(trifluoromethyl)pyrazolo [1,5-a]pyridin-2-yl)-3-hydroxy-3-(pyridin-2-yl)butanamide]
C[C@@](O)(CC(=O)Nc1nn2ccc(C(F)(F)F)cc2c1-c1ccccc1)c1ccccn1 [Example 38, (R)-3-hydroxy-N-(3-phenyl-5-(trifluoromethyl)pyrazolo [1,5-a]pyridin-2-yl)-3-(pyridin-2-yl)butanamide]
C[C@](O)(CC(=O)Nc1nn2ccc(C(F)(F)F)cc2c1C1CCC1)c1ccccn1 [Example 41, (S)-N-(3-cyclobutyl-5-(trifluoromethyl)pyrazolo [1,5-a]pyridin-2-yl)-3-hydroxy-3-(pyridin-2-yl)butanamide]
CC(C)(C)CC(=O)Nc1nn2cccc(F)c2c1C1CCC1 [Example 60, N-(3-cyclobutyl-4-fluoropyrazolo [1,5-a]pyridin-2-yl)-3,3-dimethylbutanamide]

QPatch Kv7.2/7.3 Activity, + (2.0-3.99 (+)):
C[C@@](O)(CC(=O)Nc1nn2ccc(C(F)(F)F)cc2c1C1CCC1)c1ccccn1 [Example 35, (R)-N-(3-cyclobutyl-5-(trifluoromethyl)pyrazolo [1,5-a]pyridin-2-yl)-3-hydroxy-3-(pyridin-2-yl)butanamide]
C[C@@](O)(CC(=O)Nc1nn2ccc(C#N)cc2c1C1CCC1)c1ccccn1 [Example 36, (R)-N-(5-cyano-3-cyclobutylpyrazolo[1,5-a]pyridin-2-yl)-3-hydroxy-3-(pyridin-2-yl)butanamide]
C[C@@](O)(CC(=O)Nc1nn2ccc(C(F)(F)F)cc2c1-c1cccc(F)c1)c1ccccn1 [Example 39, (R)-N-(3-(3-fluorophenyl)-5-(trifluoromethyl)pyrazolo [1,5-a]pyridin-2-yl)-3-hydroxy-3-(pyridin-2-yl)butanamide]
Cc1ccc(-c2c(NC(=O)C[C@@](C)(O)c3ccccn3)nn3ccc(C(F)(F)F)cc23)cc1 [Example 40, (R)-3-hydroxy-3-(pyridin-2-yl)-N-(3-(p-tolyl)-5-(trifluoromethyl)pyrazolo[1,5-a]pyridin-2-yl)butanamide]
C[C@](O)(CC(=O)Nc1nn2ccc(C(F)(F)F)cc2c1-c1ccc(F)cc1)c1ccccn1 [Example 42, (S)-N-(3-(4-fluorophenyl)-5-(trifluoromethyl)pyrazolo [1,5-a]pyridin-2-yl)-3-hydroxy-3-(pyridin-2-yl)butanamide]
C[C@](O)(CC(=O)Nc1nn2ccc(C#N)cc2c1C1CCC1)c1ccccn1 [Example 43, (S)-N-(5-cyano-3-cyclobutylpyrazolo[1,5-a]pyridin-2-yl)-3-hydroxy-3-(pyridin-2-yl)butanamide]
CC(C)(O)CC(=O)Nc1nn2ccc(C(F)(F)F)cc2c1-c1ccc(Cl)s1 [Example 44, N-(3-(5-chlorothiophen-2-yl)-5-(trifluoromethyl)pyrazolo [1,5-a]pyridin-2-yl)-3-hydroxy-3-methylbutanamide]
Cc1cccc(-c2c(NC(=O)CC(C)(C)O)nn3ccc(C(F)(F)F)cc23)c1 [Example 47, 3-hydroxy-3-methyl-N-(3-(m-tolyl)-5-(trifluoromethyl)pyrazolo [1,5-a]pyridin-2-yl)butanamide]
CC(C)(O)CC(=O)Nc1nn2ccc(C(F)(F)F)cc2c1-c1cccc(Cl)c1 [Example 48, N-(3-(3-chlorophenyl)-5-(trifluoromethyl)pyrazolo [1,5-a]pyridin-2-yl)-3-hydroxy-3-methylbutanamide]
CC(C)(O)CC(=O)Nc1nn2ccc(C(F)(F)F)cc2c1-c1ccc(OC(F)(F)F)cc1 [Example 49, 3-hydroxy-3-methyl-N-(3-(4-(trifluoromethoxy)phenyl)-5-(trifluoromethyl)pyrazolo [1,5-a]pyridin-2-yl)butanamide]
CC(C)(O)CC(=O)Nc1nn2ccc(C(F)(F)F)cc2c1-c1ccc(C(F)(F)F)cc1 [Example 50, 3-hydroxy-3-methyl-N-(5-(trifluoromethyl)-3-(4-(trifluoromethyl)phenyl)pyrazolo [1,5-a]pyridin-2-yl)butanamide]
CC(C)(O)CC(=O)Nc1nn2ccc(Cl)cc2c1C1CCC1 [Example 53, N-(5-chloro-3-cyclobutylpyrazolo[1,5-a]pyridin-2-yl)-3-hydroxy-3-methylbutanamide]
CC(C)(O)CC(=O)Nc1nn2ccc(C(F)(F)F)cc2c1-c1ccc(F)c(F)c1 [Example 55, N-(3-(3,4-difluorophenyl)-5-(trifluoromethyl)pyrazolo [1,5-a]pyridin-2-yl)-3-hydroxy-3-methylbutanamide]
CC(C)(O)CC(=O)Nc1nn2ccc(C(F)(F)F)cc2c1-c1cc(F)cc(F)c1 [Example 56, N-(3-(3,5-difluorophenyl)-5-(trifluoromethyl)pyrazolo [1,5-a]pyridin-2-yl)-3-hydroxy-3-methylbutanamide]
CC(C)(O)CC(=O)Nc1nn2ccc(Cl)cc2c1-c1ccc(F)cc1 [Example 58, N-(5-chloro-3-(4-fluorophenyl)pyrazolo [1,5-a]pyridin-2-yl)-3-hydroxy-3-methylbutanamide]
CC(C)(C)CC(=O)Nc1nn2ccc(C#N)cc2c1-c1ccc(F)cc1 [Example 59, N-(5-cyano-3-(4-fluorophenyl)pyrazolo [1,5-a]pyridin-2-yl)-3,3-dimethylbutanamide]

QPatch Kv7.2/7.3 Activity, +/− (1.2-1.99-fold (+/−)):
CC(C)(O)CC(=O)Nc1nn2ccc(C(F)(F)F)cc2c1-c1ccc(Cl)nc1 [Example 45, N-(3-(6-chloropyridin-3-yl)-5-(trifluoromethyl)pyrazolo [1,5-a]pyridin-2-yl)-3-hydroxy-3-methylbutanamide]
CC(C)(O)CC(=O)Nc1nn2ccc(C(F)(F)F)cc2c1-c1ccccc1F [Example 46, N-(3-(2-fluorophenyl)-5-(trifluoromethyl)pyrazolo [1,5-a]pyridin-2-yl)-3-hydroxy-3-methylbutanamide]
Cc1ccccc1-c1c(NC(=O)CC(C)(C)O)nn2ccc(C(F)(F)F)cc12 [Example 51, 3-hydroxy-3-methyl-N-(3-(o-tolyl)-5-(trifluoromethyl)pyrazolo [1,5-a]pyridin-2-yl)butanamide]
CC(C)(O)CC(=O)Nc1nn2cccc(F)c2c1C1CCC1 [Example 61, N-(3-cyclobutyl-4-fluoropyrazolo[1,5-a]pyridin-2-yl)-3-hydroxy-3-methylbutanamide]

QPatch Kv7.2/7.3 Activity, − (<1.2-fold (−)):
Cn1cc(-c2c(NC(=O)CC(C)(C)O)nn3ccc(C(F)(F)F)cc23)cn1 [Example 52, 3-hydroxy-3-methyl-N-(3-(1-methyl-1H-pyrazol-4-yl)-5-(trifluoromethyl)pyrazolo [1,5-a]pyridin-2-yl)butanamide]
Cn1cc(-c2c(NC(=O)CC(C)(C)O)nn3ccc(C(F)(F)F)cc23)nn1 [Example 54, 3-hydroxy-3-methyl-N-(3-(1-methyl-1H-1,2,3-triazol-4-yl)-5-(trifluoromethyl)pyrazolo [1,5-a]pyridin-2-yl)butanamide]
